Measurements taken from patent US5814488A (priority 1993, dated 1998).
≈ marks a conversion by molar mass, not a printed value. Read-outs that look alike come from different tables or passages of the source.

How the values were obtained:
Haemophilus influenzae = experiment: In vitro antibacterial activity against 1108 strains pathogenic bacteria (Table 4); format: cell-based; details: 8 strains
Staphylococcus arueus = experiment: as above; format: cell-based; details: 190 strains
Serratia sp. = experiment: as above; format: cell-based; details: 30 strains
Shigella dysenteriae = experiment: as above; format: cell-based
Streptococcus pyogenes = experiment: as above; format: cell-based; details: 27 strains
S. aureus = experiment: Comparison of MIC and MBC (Tables 5 and 6); format: cell-based; details: S. aureus, 31 strains
Excerpt: (§1) […]. […] […]

Klebsiella pneumoniae [1] = experiment: Comparison of MIC and MBC (Tables 5 and 6); format: cell-based
Excerpt: as §1

Escherichia coli [2] = experiment: Comparison of MIC and MBC (Tables 5 and 6); format: cell-based
Excerpt: as §1

Pseudomonas sp. [3] = experiment: Comparison of MIC and MBC (Tables 5 and 6); format: cell-based
Excerpt: as §1

Shigella = experiment: Comparison of MIC and MBC (Tables 5 and 6); format: cell-based
Excerpt: as §1

Streptococcus faecalis = experiment: In vitro antibacterial activity against 1108 strains pathogenic bacteria (Table 4); format: cell-based; details: Enterococcus faecalis, 33 strains
Streptococcus viridans = experiment: as above; format: cell-based; details: 27 strains
bacteria infected mice = experiment: In vivo therapeutic effect on bacteria infected mice; details: similar to those in vitro
Ciltrobacter sp. = experiment: In vitro antibacterial activity against 1108 strains pathogenic bacteria (Table 4); format: cell-based; details: 30 strains
Excerpt: as §1

Proteus mirabilis = experiment: as above; format: cell-based; details: 60 strains
Excerpt: as §1

Klebsiella pneumoniae [4] = experiment: as above; format: cell-based
Excerpt: as §1

Enterobacter aerugenes = experiment: as above; format: cell-based
Excerpt: as §1

Acinetobacter sp. = experiment: as above; format: cell-based; details: 27 strains
Excerpt: as §1

Escherichia coli [5] = experiment: as above; format: cell-based
Excerpt: as §1

Pseudomonas sp. [6] = experiment: as above; format: cell-based; details: 204 strains
Excerpt: as §1

Salmonella typhi = experiment: as above; format: cell-based; details: Salmonella enterica
Excerpt: as §1

[7] = tested on: Methicillin resistant S. aureus; experiment: as above; format: cell-based; details: Staphylococcus aureus, 53 strains
[8] = Acute toxicity, Kunming mice; details: versus netilmicin and GM
Streptococcus pneumoniae = experiment: In vitro antibacterial activity against 1108 strains pathogenic bacteria (Table 4); format: cell-based; details: 14 strains
Enterobacter cloacae = experiment: as above; format: cell-based; details: 29 strains
[9] = tested on: Staphylococcus epidermidis; experiment: as above; format: cell-based; details: 27 strains
[10] = Nephrotoxicity to rat after i.m. administration; details: gentamicin at 150 MKD and 100 MKD from seventh day
[11] = Chronic toxicity, rat i.p. 90 days
[12] = comparison value for MCR, source not stated in block, cited from earlier work
[13] = Table 5, 20 strains, read-out: MBC50
[14] = Table 5, 20 strains, read-out: MBC90
[15] = Table 6, 20 strains, unit assumed
[16] = Enterobacter aerugenes, 27 strains

Compound: CCNC1CC(N)C(OC2OC(CN)CCC2N)C(O)C1OC1OCC(C)(O)C(NC)C1O (centres unmarked)
- MIC50 (Haemophilus influenzae): 0.031 µg/mL (≈ 0.0649 µM)
- MIC90 (Haemophilus influenzae): 4 µg/mL (≈ 8.38 µM)
- MIC (Haemophilus influenzae; read-out: MIC range): 0.031 to 4 µg/mL (≈ 0.0649 to 8.38 µM)
- MIC (Haemophilus influenzae; read-out: Mode MIC): 0.031 µg/mL (≈ 0.0649 µM)
- MIC50 (Staphylococcus arueus): 1 µg/mL (≈ 2.09 µM)
- MIC90 (Staphylococcus arueus): 16 µg/mL (≈ 33.5 µM)
- MIC range (Staphylococcus arueus; in µg/mL (unit assumed)): 0.031-128
- MIC (Staphylococcus arueus; read-out: Mode MIC): 0.062 µg/mL (≈ 0.13 µM)
- MIC50 (Serratia sp.): 0.5 µg/mL (≈ 1.05 µM)
- MIC90 (Serratia sp.): 32 µg/mL (≈ 67 µM)
- MIC range (Serratia sp.; in µg/mL (unit assumed)): 0.062-256
- MIC (Serratia sp.; read-out: Mode MIC): 0.5 µg/mL (≈ 1.05 µM)
- MIC50 (Shigella dysenteriae): 0.25 µg/mL (≈ 0.523 µM)
- MIC90 (Shigella dysenteriae): 0.5 µg/mL (≈ 1.05 µM)
- MIC (Shigella dysenteriae; read-out: MIC range): 0.125 to 64 µg/mL (≈ 0.262 to 134 µM)
- MIC (Shigella dysenteriae; read-out: Mode MIC): 0.25 µg/mL (≈ 0.523 µM)
- MIC50 (Streptococcus pyogenes): 1 µg/mL (≈ 2.09 µM)
- MIC90 (Streptococcus pyogenes): 32 µg/mL (≈ 67 µM)
- MIC (Streptococcus pyogenes; read-out: MIC range): 0.25 to 128 µg/mL (≈ 0.523 to 268 µM)
- MIC (Streptococcus pyogenes; read-out: Mode MIC): 1 µg/mL (≈ 2.09 µM)
- MBC (S. aureus; Staphylococcus aureus, Table 5, read-out: MBC50): 0.5 µg/mL (≈ 1.05 µM)
- MBC (S. aureus; Staphylococcus aureus, Table 5, read-out: MBC90): 2 µg/mL (≈ 4.19 µM)
- MIC50 (S. aureus; Staphylococcus aureus, Table 5, read-out: MIC50): 0.062 µg/mL (≈ 0.13 µM)
- MIC90 (S. aureus; Staphylococcus aureus, Table 5, read-out: MIC90): 0.25 µg/mL (≈ 0.523 µM)
- MBC (S. aureus; Staphylococcus aureus, Table 6, read-out: MBC range): 0.062 to 4 µg/mL (≈ 0.13 to 8.38 µM)
- MBC90 (S. aureus; Table 6, unit assumed): 2 µg/mL (≈ 4.19 µM)
- MIC50 (Klebsiella pneumoniae [1]): 0.125 µg/mL (≈ 0.262 µM)
- MIC90 (Klebsiella pneumoniae [1]): 0.125 µg/mL (≈ 0.262 µM)
- MBC (Klebsiella pneumoniae [1]; [13]): 0.25 µg/mL (≈ 0.523 µM)
- MBC (Klebsiella pneumoniae [1]; [14]): 0.5 µg/mL (≈ 1.05 µM)
- MBC (Klebsiella pneumoniae [1]; Table 6, 20 strains, read-out: MBC range): 0.062 to 1 µg/mL (≈ 0.13 to 2.09 µM)
- MBC90 (Klebsiella pneumoniae [1]; [15]): 0.5 µg/mL (≈ 1.05 µM)
- MIC50 (Escherichia coli [2]): 0.125 µg/mL (≈ 0.262 µM)
- MBC (Escherichia coli [2]; [13]): 0.25 µg/mL (≈ 0.523 µM)
- MBC (Escherichia coli [2]; [14]): 1 µg/mL (≈ 2.09 µM)
- MIC90 (Escherichia coli [2]; Table 5, 20 strains, read-out: MIC90): 0.5 µg/mL (≈ 1.05 µM)
- MBC90 (Escherichia coli [2]; [15]): 1 µg/mL (≈ 2.09 µM)
- MBC (Escherichia coli [2]; read-out: MBC range): 0.125 to 8 µg/mL (≈ 0.262 to 16.8 µM)
- MIC50 (Pseudomonas sp. [3]; Pseudomonas): 1 µg/mL (≈ 2.09 µM)
- MIC90 (Pseudomonas sp. [3]; Pseudomonas): 4 µg/mL (≈ 8.38 µM)
- MBC (Pseudomonas sp. [3]; Pseudomonas, read-out: MBC50): 2 µg/mL (≈ 4.19 µM)
- MBC (Pseudomonas sp. [3]; Pseudomonas, read-out: MBC90): 8 µg/mL (≈ 16.8 µM)
- MBC (Pseudomonas sp. [3]; Table 6, Pseudomonas sp., 20 strains, read-out: MBC range): 0.25 to 16 µg/mL (≈ 0.523 to 33.5 µM)
- MBC90 (Pseudomonas sp. [3]; Table 6, Pseudomonas sp., 20 strains, unit assumed): 8 µg/mL (≈ 16.8 µM)
- MIC50 (Shigella; Table 5, 10 strains): 0.062 µg/mL (≈ 0.13 µM)
- MBC (Shigella; Table 5, 10 strains, read-out: MBC50): 0.5 µg/mL (≈ 1.05 µM)
- MBC (Shigella; Table 5, 10 strains, read-out: MBC90): 1 µg/mL (≈ 2.09 µM)
- MIC90 (Shigella; Table 5, 10 strains, read-out: MIC90): 0.125 µg/mL (≈ 0.262 µM)
- MBC (Shigella; Table 6, 10 strains, read-out: MBC range): 0.125 to 1 µg/mL (≈ 0.262 to 2.09 µM)
- MBC90 (Shigella; Table 6, 10 strains, unit assumed): 1 µg/mL (≈ 2.09 µM)
- MIC50 (Streptococcus faecalis): 32 µg/mL (≈ 67 µM)
- MIC90 (Streptococcus faecalis): 256 µg/mL (≈ 536 µM)
- MIC (Streptococcus faecalis; read-out: MIC range): 0.5 to 256 µg/mL (≈ 1.05 to 536 µM)
- MIC (Streptococcus faecalis; read-out: Mode MIC): 1 µg/mL (≈ 2.09 µM)
- MIC50 (Streptococcus viridans): 1 µg/mL (≈ 2.09 µM)
- MIC90 (Streptococcus viridans): 4 µg/mL (≈ 8.38 µM)
- MIC (Streptococcus viridans; read-out: MIC range): 0.062 to 4 µg/mL (≈ 0.13 to 8.38 µM)
- MIC (Streptococcus viridans; read-out: Mode MIC): 2 µg/mL (≈ 4.19 µM)
- inhibitive and germicide activities in vivo (bacteria infected mice): high inhibitive activities and germicide activities in vivo which are similar to those in vitro
- MIC50 (Ciltrobacter sp.): 0.25 µg/mL (≈ 0.523 µM)
- MIC90 (Ciltrobacter sp.): 16 µg/mL (≈ 33.5 µM)
- MIC range (Ciltrobacter sp.; in µg/mL (unit assumed)): 0.125-128
- MIC (Ciltrobacter sp.; read-out: Mode MIC): 0.25 µg/mL (≈ 0.523 µM)
- MIC50 (Proteus mirabilis): 0.5 µg/mL (≈ 1.05 µM)
- MIC90 (Proteus mirabilis): 2 µg/mL (≈ 4.19 µM)
- MIC range (Proteus mirabilis; in µg/mL (unit assumed)): 0.125-128
- MIC (Proteus mirabilis; read-out: Mode MIC): 0.5 µg/mL (≈ 1.05 µM)
- MIC50 (Klebsiella pneumoniae [4]): 0.125 µg/mL (≈ 0.262 µM)
- MIC90 (Klebsiella pneumoniae [4]; 115 strains): 8 µg/mL (≈ 16.8 µM)
- MIC range (Klebsiella pneumoniae [4]; 115 strains, in µg/mL (unit assumed)): 0.062-128
- MIC (Klebsiella pneumoniae [4]; read-out: Mode MIC): 0.125 µg/mL (≈ 0.262 µM)
- MIC50 (Enterobacter aerugenes; [16]): 0.25 µg/mL (≈ 0.523 µM)
- MIC90 (Enterobacter aerugenes; [16]): 16 µg/mL (≈ 33.5 µM)
- MIC (Enterobacter aerugenes; Enterobacter aerugenes, 27 strains, read-out: MIC range): 0.062 to 32 µg/mL (≈ 0.13 to 67 µM)
- MIC (Enterobacter aerugenes; Enterobacter, read-out: Mode MIC): 0.125 µg/mL (≈ 0.262 µM)
- MIC50 (Acinetobacter sp.): 0.5 µg/mL (≈ 1.05 µM)
- MIC90 (Acinetobacter sp.): 256 µg/mL (≈ 536 µM)
- MIC range (Acinetobacter sp.; in µg/mL (unit assumed)): 0.125-256
- MIC (Acinetobacter sp.; read-out: Mode MIC): 0.25 µg/mL (≈ 0.523 µM)
- MIC50 (Escherichia coli [5]; 146 strains): 0.25 µg/mL (≈ 0.523 µM)
- MIC90 (Escherichia coli [5]; 146 strains): 16 µg/mL (≈ 33.5 µM)
- MIC (Escherichia coli [5]; 146 strains, read-out: Mode MIC): 0.25 µg/mL (≈ 0.523 µM)
- MIC (Escherichia coli [5]; read-out: MIC range): 0.125 to 64 µg/mL (≈ 0.262 to 134 µM)
- MIC50 (Pseudomonas sp. [6]): 8 µg/mL (≈ 16.8 µM)
- MIC90 (Pseudomonas sp. [6]): > 256 µg/mL
- MIC (Pseudomonas sp. [6]; read-out: Mode MIC): 8 µg/mL (≈ 16.8 µM)
- MIC50 (Salmonella typhi): 0.5 µg/mL (≈ 1.05 µM)
- MIC90 (Salmonella typhi): 8 µg/mL (≈ 16.8 µM)
- MIC (Salmonella typhi; read-out: MIC range): 0.062 to 32 µg/mL (≈ 0.13 to 67 µM)
- MIC (Salmonella typhi; read-out: Mode MIC): 0.5 µg/mL (≈ 1.05 µM)
- MIC50 [7]: 8 µg/mL (≈ 16.8 µM)
- MIC90 [7]: 32 µg/mL (≈ 67 µM)
- MIC ([7]; read-out: MIC range): 0.5 to 128 µg/mL (≈ 1.05 to 268 µM)
- MIC ([7]; read-out: Mode MIC): 8 µg/mL (≈ 16.8 µM)
- acute toxicity, comparison [8]: lower than that of netilmicin obviously and similar to that of GM
- MIC50 (Streptococcus pneumoniae): 0.25 µg/mL (≈ 0.523 µM)
- MIC90 (Streptococcus pneumoniae): 4 µg/mL (≈ 8.38 µM)
- MIC (Streptococcus pneumoniae; read-out: MIC range): 0.031 to 16 µg/mL (≈ 0.0649 to 33.5 µM)
- MIC (Streptococcus pneumoniae; read-out: Mode MIC): 0.031 µg/mL (≈ 0.0649 µM)
- MIC50 (Enterobacter cloacae): 2 µg/mL (≈ 4.19 µM)
- MIC90 (Enterobacter cloacae): 64 µg/mL (≈ 134 µM)
- MIC (Enterobacter cloacae; read-out: Mode MIC): 0.25 µg/mL (≈ 0.523 µM)
- MIC50 [9]: 0.31 µg/mL (≈ 0.649 µM)
- MIC90 [9]: 1 µg/mL (≈ 2.09 µM)
- MIC ([9]; read-out: MIC range): 0.031 to 16 µg/mL (≈ 0.0649 to 33.5 µM)
- MIC ([9]; read-out: Mode MIC): 0.031 µg/mL (≈ 0.0649 µM)
- dead animals [10]: no dead
- chronic toxicity, comparison with MCR [11]: not greater than that of MCR

Compound: CNC[C@@H]1CC[C@@H](N)[C@@H](O[C@H]2[C@H](O)[C@@H](O[C@H]3OC[C@](C)(O)[C@H](NC)[C@H]3O)[C@H](N)C[C@@H]2N)O1 [MCR, Micronomicin]
- dosage of general safety ([12]; 129600 min): 25 MKD
- dosage showing apparent intoxication [12]: 63 MKD
